Laboratory results: US12247010B2, “Tubulin inhibitors” (LIN BIOSCIENCE PTY LTD., priority 2017, dated 2025)

Tested on: U87MG cells
Assay: Cytotoxicity assay (cell viability, CellTiter 96 Aqueous MTS)
Format: cell-based
Details: Homo sapiens, U-87 MG, 72 h, 72 hours incubation, starting concentration 50 uM, 9 point half log dilution, average where tested repeatedly
Method in brief: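 U87MG cells plated at 7×10^3 cells/well overnight, then treated 72 h with 9-point half-log dilutions from a 50 uM starting concentration. Viability measured with CellTiter 96 Aqueous MTS; IC50 calculated from viability.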

| SMILES | IC50 [nM] |
| --- | --- |
| CC(=O)Nc1ccc(C(=O)NCCCc2ccc(-c3ccccc3F)cc2)cn1 [Compound 121, 6-acetamido-N-(3-(2′-fluoro-[1,1′-biphenyl]-4-yl)propyl)nicotinamide] | 1000 to 5000 |
| CN1CCC(C(=O)NCCCc2ccc(-c3ccccc3F)cc2)CC1 [Compound 87, N-(3-(2′-fluoro-[1,1′-biphenyl]-4-yl)propyl)-1-methylpiperidine-4-carboxamide] | > 5000 |
| Cc1ccc(C(=O)NCCCc2ccc(-c3cnc4[nH]ccc4c3)cc2)cn1 [Compound 229, N-(3-(4-(1H-pyrrolo[2,3-b]pyridin-5-yl)phenyl)propyl)-6-methylnicotinamide] | < 500 |
| O=C(Nc1cn[nH]c1)N1CCN(c2ccc(-c3ccccc3F)cc2)CC1 [Compound 281, 4-(2′-fluoro-[1,1′-biphenyl]-4-yl)-N-(1H-pyrazol-4-yl)piperazine-1-carboxamide] | > 5000 |
| O=C(CCCc1ccc(-c2ccccc2F)cc1)NCc1cccnc1 [Compound 41, 4-(2′-fluoro-[1,1′-biphenyl]-4-yl)-N-(pyridin-3-ylmethyl)butanamide] | > 5000 |
| CCOc1ccc(CC(=O)NCCCc2ccc(-c3ccccc3F)cc2)cc1 [Compound 112, 2-(4-ethoxyphenyl)-N-(3-(2′-fluoro-[1,1′-biphenyl]-4-yl)propyl)acetamide] | 1000 to 5000 |
| Cc1ccc(C(=O)NCCCc2ccc(-c3ccc4ncccc4c3)cc2)cn1 [Compound 237, 6-methyl-N-(3-(4-(quinolin-6-yl)phenyl)propyl)nicotinamide] | < 500 |
| Cc1cc(C(=O)NCCCc2ccc(-c3ccccc3F)cc2)[nH]n1 [Compound 139, N-(3-(2′-fluoro-[1,1′-biphenyl]-4-yl)propyl)-3-methyl-1H-pyrazole-5-carboxamide] | 501 to 1000 |
| O=C(CCCc1cccc(-n2cccn2)c1)Nc1cccnc1 [Compound 185, 4-(3-(1H-pyrazol-1-yl)phenyl)-N-(pyridin-3-yl)butanamide] | > 5000 |
| Cc1ccc(-c2ccc(CCCC(=O)Nc3cccnc3)cc2)cn1 [Compound 153, 4-(4-(6-methylpyridin-3-yl)phenyl)-N-(pyridin-3-yl)butanamide] | > 5000 |
| O=C(NCCCc1ccc(-c2ccccc2F)cc1)c1ccc2[nH]ncc2c1 [Compound 73, N-(3-(2′-fluoro-[1,1′-biphenyl]-4-yl)propyl)-1H-indazole-5-carboxamide] | 1000 to 5000 |
| O=C(CCCc1ccc(-c2ccc(C(F)(F)F)cc2F)cc1)Nc1cccnc1 [Compound 189, 4-(2′-fluoro-4′-(trifluoromethyl)-[1,1′-biphenyl]-4-yl)-N-(pyridin-3-yl)butanamide] | 1000 to 5000 |
| COc1cccc(-c2ccc(CCCNC(=O)c3cnc(C)s3)cc2)c1F [Compound 304, N-(3-(2′-fluoro-3′-methoxy-[1,1′-biphenyl]-4-yl)propyl)-2-methylthiazole-5-carboxamide] | < 500 |
| O=C(NCCCc1ccc(-c2ccccc2F)cc1)c1cncnc1 [Compound 67, N-(3-(2′-fluoro-[1,1′-biphenyl]-4-yl)propyl)pyrimidine-5-carboxamide] | < 500 |
| COc1cccc(-c2ccc(CC(C)(C)CNC(=O)c3ccc(C)nc3)cc2)c1F [Compound 276, N-(3-(2′-fluoro-3′-methoxy-[1,1′-biphenyl]-4-yl)-2,2-dimethylpropyl)-6-methylnicotinamide] | 1000 to 5000 |
| O=C(Cn1ccnc1)NCCCc1ccc(-c2ccccc2F)cc1 [Compound 124, N-(3-(2′-fluoro-[1,1′-biphenyl]-4-yl)propyl)-2-(1H-imidazol-1-yl)acetamide] | > 5000 |
| O=C(CCCc1ccc(-c2ccc3[nH]ncc3c2)cc1)Nc1cccnc1 [Compound 206, 4-(4-(1H-indazol-5-yl)phenyl)-N-(pyridin-3-yl)butanamide] | < 500 |

| SMILES | IC50 [nM] |
| --- | --- |
| Cc1cc(C(=O)NCCCc2ccc(-c3ccc4[nH]ncc4c3C)cc2)n(C)n1 [Compound 228, 1,3-dimethyl-N-(3-(4-(4-methyl-1H-indazol-5-yl)phenyl)propyl)-1H-pyrazole-5-carboxamide] | < 500 |
| O=C(CCCc1ccc(-c2ccc3nccn3c2)cc1)Nc1cccnc1 [Compound 197, 4-(4-(imidazo[1,2-a]pyridin-6-yl)phenyl)-N-(pyridin-3-yl)butanamide] | > 5000 |
| Cc1noc(C)c1C(=O)NCCCc1ccc(-c2ccccc2F)cc1 [Compound 144, N-(3-(2′-fluoro-[1,1′-biphenyl]-4-yl)propyl)-3,5-dimethylisoxazole-4-carboxamide] | > 5000 |
| O=C(CCCc1ccc(-c2ccc3nccnc3c2)cc1)Nc1cccnc1 [Compound 192, N-(pyridin-3-yl)-4-(4-(quinoxalin-6-yl)phenyl)butanamide] | 1000 to 5000 |
| O=C(CCCc1ccc(-c2ccc3c(c2)OCCO3)cc1)Nc1cccnc1 [Compound 162, 4-(4-(2,3-dihydrobenzo[b][1,4]dioxin-6-yl)phenyl)-N-(pyridin-3-yl)butanamide] | 501 to 1000 |
| Cc1cnoc1C(=O)NCCCc1ccc(-c2ccccc2F)cc1 [Compound 145, N-(3-(2′-fluoro-[1,1′-biphenyl]-4-yl)propyl)-4-methylisoxazole-5-carboxamide] | > 5000 |
| O=C(CCCc1ccc(-c2cccc(Cl)c2F)cc1)Nc1cccnc1 [Compound 225, 4-(3′-chloro-2′-fluoro-[1,1′-biphenyl]-4-yl)-N-(pyridin-3-yl)butanamide] | > 5000 |
| O=C(CCCc1ccc(-c2ccc(F)cc2F)cc1)Nc1cccnc1 [Compound 157, 4-(2′,4′-difluoro-[1,1′-biphenyl]-4-yl)-N-(pyridin-3-yl)butanamide] | 1000 to 5000 |
| O=C(CCCc1ccc(-c2ccc3[nH]ccc3c2)cc1)Nc1cccnc1 [Compound 213, 4-(4-(1H-indol-5-yl)phenyl)-N-(pyridin-3-yl)butanamide] | < 500 |
| O=C(NCCCc1ccc(-c2ccccc2F)cc1)c1cncc(C(F)(F)F)c1 [Compound 85, N-(3-(2′-fluoro-[1,1′-biphenyl]-4-yl)propyl)-5-(trifluoromethyl)nicotinamide] | 1000 to 5000 |
| Cc1ncccc1C(=O)NCCCc1ccc(-c2ccc3c(c2)OCC(=O)N3)cc1 [Compound 314, 2-methyl-N-(3-(4-(3-oxo-3,4-dihydro-2H-benzo[b][1,4]oxazin-7-yl)phenyl)propyl)nicotinamide] | < 500 |
| O=C(CCCc1ccc(-c2cnc3[nH]ccc3c2)cc1)Nc1cccnc1 [Compound 181, 4-(4-(1H-pyrrolo[2,3-b]pyridin-5-yl)phenyl)-N-(pyridin-3-yl)butanamide] | < 500 |
| Cc1ccc(NC(=O)OCCc2ccc(-c3ccccc3F)cc2)cn1 [Compound 274, 2-(2′-fluoro-[1,1′-biphenyl]-4-yl)ethyl (6-methylpyridin-3-yl)carbamate] | > 5000 |
| N#Cc1cccc(-c2ccc(CCCC(=O)Nc3cccnc3)cc2)c1F [Compound 221, 4-(3′-cyano-2′-fluoro-[1,1′-biphenyl]-4-yl)-N-(pyridin-3-yl)butanamide] | 1000 to 5000 |
| Cc1ncccc1C(=O)NCCCc1ccc(-c2cnc3[nH]ccc3c2)cc1 [Compound 311, N-(3-(4-(1H-pyrrolo[2,3-b]pyridin-5-yl)phenyl)propyl)-2-methylnicotinamide] | < 500 |
| O=C(CCCc1ccc(-c2ccccc2F)cc1)NCc1ccncc1 [Compound 42, 4-(2′-fluoro-[1,1′-biphenyl]-4-yl)-N-(pyridin-4-ylmethyl)butanamide] | 1000 to 5000 |
